pEC50: −log10 of the molar value. Read-outs that look alike come from different tables or passages of the source.
Key:
Type in all cases: cell-based, human
I9.2 = test: cell cytotoxicity EC50, CellTiter Glo, leukemia/lymphoma cell line
Protocol: (§1) The SCLC and leukemia/lymphoma cell lines listed below were obtained from the American Type Culture Collection (Manassas, Va.), Deutsche Sammlung von Mikroorganismen und Zellkulturen (DSMZ, Braunsweig, Germany), or were the generous gift from Dr. Louis Staudt (National Cancer Institute) and were cultured as described in Tse, C., Shoemaker, A. R., Adickes, J., et al., “ABT-263: a potent and orally bioavailable Bcl-2 family inhibitor,” Cancer Res 2008; 68: 3421-3428; and Tahir, S. K., Yang, X., Anderson, M. G., et al., “Influence of Bcl-2 family members on the cellular response of small-cell lung cancer cell lines to ABT-737,” Cancer Res 2007; 67: 1176-1183.
(§2) Cells were treated at 10,000 or 50,000 cells per well for adherent or suspension cells, respectively, in 96-well microtiter plates in the presence of 10% human serum for 48 hours with or without ABT-263, in a humidified chamber with 5% CO2. ABT-263 was synthesized as previously described in Tse, C., Shoemaker, A. R., Adickes, J., et al., “ABT-263: a potent and orally bioavailable Bcl-2 family inhibitor,” Cancer Res 2008; 68: 3421-3428; and Oltersdorf, T., Elmore, S. W., Shoemaker, A. R., et al., “An inhibitor of Bcl-2 family proteins induces regression of solid tumours,” Nature 2005; 435: 677-681, and cell cytotoxicity EC50 values were assessed using CellTiter Glo (Promega, Madison Wis.).

MV-4-11 = test: as above
Protocol: as §1, §2

MEG-01 = test: as above
Protocol: as §1, §2

CCRF-HSB2 = test: as above
Protocol: as §1, §2

Pfeiffer = test: as above
Protocol: as §1, §2

U-937 = test: as above
Protocol: as §1, §2

SuPB15 = test: as above
Protocol: as §1, §2

CCRF-CEM = test: as above
Protocol: as §1, §2

Rs11380 = test: as above
Protocol: as §1, §2

WSU-NHL = test: as above
Protocol: as §1, §2

Raji = test: as above
Protocol: as §1, §2

SuDHL-4 = test: as above
Protocol: as §1, §2

K562 = test: as above
Protocol: as §1, §2

HL60 = test: as above
Protocol: as §1, §2

DOHH2 = test: as above; conditions: DOHH-2
Protocol: as §1, §2

MOLT-4 = test: as above
Protocol: as §1, §2

CEM/C1 = test: as above
Protocol: as §1, §2

RPMI 8226 = test: as above
Protocol: as §1, §2

Jurkat = test: as above
Protocol: as §1, §2

KG1a = test: as above; conditions: KG-1a
Protocol: as §1, §2

Reh = test: as above
Protocol: as §1, §2

JVM-13 = test: cell cytotoxicity EC50, CellTiter Glo, Mantle Cell Lymphoma cell line
Protocol: as §1, §2

SP53 = test: as above
Protocol: as §1, §2

HBL-2 = test: as above
Protocol: as §1, §2

Granta = test: as above
Protocol: as §1, §2

JeKo-1 = test: as above
Protocol: as §1, §2

Mino = test: as above
Protocol: as §1, §2

JVM-2 = test: as above
Protocol: as §1, §2

[1] = 10% human serum, 48 hours, read-out: EC50
[2] = Homo sapiens, read-out: Response Designation

SMILES: CC1(C)CCC(c2ccc(Cl)cc2)=C(CN2CCN(c3ccc(C(=O)NS(=O)(=O)c4ccc(N[C@H](CCN5CCOCC5)CSc5ccccc5)c(S(=O)(=O)C(F)(F)F)c4)cc3)CC2)C1 [ABT-263, N-(4-(4-((2-(4-chlorophenyl)-5,5-dimethyl-1-cyclohex-1-en-1-yl)methyl)piperazin-1-yl)benzoyl)-4-(((1R)-3-(morpholin-4-yl)-1-((phenylsulfanyl)methyl)propyl)amino)-3-((trifluoromethyl)sulfonyl)benzenesulfonamide]
- pEC50 (I9.2; [1]): 5.74
- pEC50 (I9.2; [2]): ≥ 5.32
- pEC50 (MV-4-11; Homo sapiens, MV4-11, read-out: Response Designation): ≥ 5.32
- pEC50 (MV-4-11; MV4-11, 10% human serum, 48 hours, read-out: EC50): 7.55
- pEC50 (MEG-01; Homo sapiens, MEG-01, read-out: Response Designation): < 5.32
- pEC50 (MEG-01; Meg-01, 10% human serum, 48 hours, read-out: EC50): 5.22
- pEC50 (CCRF-HSB2; CCRF-HSB-2, 10% human serum, 48 hours, read-out: EC50): 5.94
- pEC50 (CCRF-HSB2; Homo sapiens, CCRF-HSB-2, read-out: Response Designation): ≥ 5.32
- pEC50 (Pfeiffer; [1]): 5.06
- pEC50 (Pfeiffer; [2]): < 5.32
- pEC50 (U-937; [1]): 4.47
- pEC50 (U-937; [2]): < 5.32
- pEC50 (SuPB15; Homo sapiens, SUP-B15, read-out: Response Designation): ≥ 5.32
- pEC50 (SuPB15; SUP-B15, 10% human serum, 48 hours, read-out: EC50): 6.59
- pEC50 (CCRF-CEM; [1]): 6.12
- pEC50 (CCRF-CEM; [2]): ≥ 5.32
- pEC50 (Rs11380; [1]): 6.84
- pEC50 (Rs11380; [2]): ≥ 5.32
- pEC50 (WSU-NHL; [1]): 5.45
- pEC50 (WSU-NHL; [2]): ≥ 5.32
- pEC50 (Raji; [1]): 4.63
- pEC50 (Raji; [2]): < 5.32
- pEC50 (SuDHL-4; Homo sapiens, SU-DHL-4, read-out: Response Designation): ≥ 5.32
- pEC50 (SuDHL-4; SU-DHL-4, 10% human serum, 48 hours, read-out: EC50): 5.98
- pEC50 (K562; [1]): 4.89
- pEC50 (K562; [2]): < 5.32
- pEC50 (HL60; HL-60, 10% human serum, 48 hours, read-out: EC50): 5.32
- pEC50 (HL60; Homo sapiens, HL-60, read-out: Response Designation): ≥ 5.32
- pEC50 (DOHH2; DoHH2, 10% human serum, 48 hours, read-out: EC50): 6.49
- pEC50 (DOHH2; Homo sapiens, DOHH2, read-out: Response Designation): ≥ 5.32
- pEC50 (MOLT-4; Homo sapiens, MOLT-4, read-out: Response Designation): ≥ 5.32
- pEC50 (MOLT-4; Molt-4, 10% human serum, 48 hours, read-out: EC50): 6.41
- pEC50 (CEM/C1; [1]): 7.20
- pEC50 (CEM/C1; [2]): ≥ 5.32
- pEC50 (RPMI 8226; [1]): 5.82
- pEC50 (RPMI 8226; [2]): ≥ 5.32
- pEC50 (Jurkat; [1]): 5.47
- pEC50 (Jurkat; [2]): ≥ 5.32
- pEC50 (KG1a; [2]): ≥ 5.32
- pEC50 (KG1a; [1]): 6.61
- pEC50 (Reh; [1]): 6.36
- pEC50 (Reh; [2]): ≥ 5.32
- pEC50 (JVM-13; Homo sapiens, JVM13, read-out: Response Designation): < 5.32
- pEC50 (JVM-13; JVM13, 10% human serum, 48 hours, read-out: EC50): 4.89
- pEC50 (SP53; [1]): 6.85
- pEC50 (SP53; [2]): ≥ 5.32
- pEC50 (HBL-2; HBL2, 10% human serum, 48 hours, read-out: EC50): 7.51
- pEC50 (HBL-2; Homo sapiens, HBL2, read-out: Response Designation): ≥ 5.32
- pEC50 (Granta; [1]): 7.39
- pEC50 (Granta; [2]): ≥ 5.32
- pEC50 (JeKo-1; [1]): 5.76
- pEC50 (JeKo-1; [2]): ≥ 5.32
- pEC50 (Mino; Homo sapiens, MINO, read-out: Response Designation): ≥ 5.32
- pEC50 (Mino; Mino, 10% human serum, 48 hours, read-out: EC50): 7.48
- pEC50 (JVM-2; [1]): 5.39
- pEC50 (JVM-2; [2]): ≥ 5.32

From patent publication US20100028889A1, “COMPANION DIAGNOSTIC ASSAYS FOR CANCER THERAPY” (ABBOTT LABORATORIES, priority 2006, published 2010)
